Data as given in patent US10508085B2, “Compounds and methods for IDO and TDO modulation, and indications therefor” (Plexxikon Inc., priority 2016, dated 2019).

Assays:
[1] = molecular target: T1, human IDO (IDO1-expressing HEK293 cells) (Homo sapiens, UniProt P14902); test: Cell based kynurenine assay, IDO1-expressing HEK293 cell clones; settings: IDO1-expressing HEK293 cells, 24 hours incubation; geometric mean; read-out: HEK293 IDO1 Kynurenine GMean IC50 (μM) (Cellular Assay)
T1 construct: expressed in transfected cells
T1 sequence (P14902 whole entry): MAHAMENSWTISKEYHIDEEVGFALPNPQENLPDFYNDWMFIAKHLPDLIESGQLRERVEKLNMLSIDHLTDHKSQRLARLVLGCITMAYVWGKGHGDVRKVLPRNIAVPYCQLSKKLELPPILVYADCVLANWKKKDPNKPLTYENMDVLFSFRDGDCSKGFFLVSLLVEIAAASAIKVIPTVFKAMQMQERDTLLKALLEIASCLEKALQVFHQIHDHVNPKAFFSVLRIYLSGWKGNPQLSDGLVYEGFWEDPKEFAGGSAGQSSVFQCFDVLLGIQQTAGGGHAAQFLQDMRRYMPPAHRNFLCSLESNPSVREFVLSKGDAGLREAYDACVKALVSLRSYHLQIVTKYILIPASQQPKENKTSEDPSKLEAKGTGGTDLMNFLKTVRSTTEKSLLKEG
Description: (§1) Determine Inhibitor Activity Against IDO or TDO in Cell Based Kynurenine Assay
(§2) IDO1-expressing or TDO-expressing HEK293 cell clones are generated upon stable transfection of plasmids expressing human IDO or human TDO under the control of CMV promoter. Cells are selected in DMEM media supplemented with 10% fetal bovine serum and 1 mg/ml G418 at 37° C. in a humidified incubator supplied with 5% CO2. The assays are performed as follows.
(§3) Cells were seeded in a 96 well plate in 50 μL of culture media at a density of 2.5×10^4 per well. Serial dilutions of compounds (in total volume of 50 μL culture media) are added into cells. 4 wells containing 0.2% DMSO treated cells serve as high controls and 4 wells containing media only with 0.2% DMSO serve as low controls. After 24 hours of incubation, the supernatant was transferred to a 384 well reaction plate and the kynurenine level determined. The percentage inhibition at individual concentrations relative to high and low controls is calculated. The data is analyzed by using nonlinear regression to generate IC50 values.

[2] = molecular target: T2, human TDO (TDO-expressing HEK293 cells) (Homo sapiens, UniProt P48775); test: Cell based kynurenine assay, TDO-expressing HEK293 cell clones; settings: TDO-expressing HEK293 cells, 24 hours incubation; geometric mean; read-out: HEK293 TDO Kynurenine GMean IC50 (μM) (Cellular Assay)
T2 construct: expressed in transfected cells
T2 sequence (P48775 whole entry): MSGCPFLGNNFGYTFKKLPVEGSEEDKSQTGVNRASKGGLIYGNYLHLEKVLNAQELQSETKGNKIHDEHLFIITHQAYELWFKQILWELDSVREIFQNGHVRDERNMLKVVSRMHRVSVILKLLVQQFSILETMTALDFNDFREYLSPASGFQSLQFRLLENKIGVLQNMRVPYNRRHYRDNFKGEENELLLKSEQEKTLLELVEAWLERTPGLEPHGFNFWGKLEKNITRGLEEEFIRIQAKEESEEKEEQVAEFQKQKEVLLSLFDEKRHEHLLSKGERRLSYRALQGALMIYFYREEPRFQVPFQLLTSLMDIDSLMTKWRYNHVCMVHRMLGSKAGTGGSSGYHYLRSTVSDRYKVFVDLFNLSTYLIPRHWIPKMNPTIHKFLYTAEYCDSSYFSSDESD
Description: as §1, §2, §3

[3] = molecular target: T3, Human Tryptophan 2,3-dioxygenase (TDO) (Homo sapiens, UniProt P48775); test: Human TDO enzymatic assay (kynurenine level); type: biochemical; settings: 1 nM TDO, 350 μM L-Trp; geometric mean; read-out: TDO GMean: IC50 (μM) (Biochemical Assay)
T3 construct: His tag (N); made in house; host or cells: E. coli
T3 sequence (P48775 whole entry): as above
Outline: (§4)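 Reactions were stopped with TCA, converting N-formylkynurenine to kynurenine for quantitation, with IC50 by nonlinear regression. IDO: 6 nM enzyme, 10 μM L-Trp, 20 min RT. TDO: 1 nM enzyme, 350 μM L-Trp, 70 min RT, both in pH 6.5 buffer.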

[4] = molecular target: T4, Human Indoleamine 2,3-dioxygenase (IDO) (Homo sapiens, UniProt P14902); test: Human IDO enzymatic assay (kynurenine level); type: biochemical; settings: 6 nM IDO, 10 μM L-Trp; geometric mean; read-out: IDO1 GMean: IC50 (μM) (Biochemical Assay)
T4 construct: His tag (N); made in house; host or cells: E. coli
T4 sequence (P14902 whole entry): as the sequence (P14902 whole entry) above
Outline: as §4

SMILES | IC50 [1] | IC50 [2] | IC50 [3] | IC50 [4]
CC1(C(O)c2cc(Cl)cc3cn[nH]c23)CCC(F)(F)CC1 (stereo not drawn) [Compound P-0032, (5-chloro-1H-indazol-7-yl)(4,4-difluoro-1-methylcyclohexyl)methanol] | 0.0001 to 10 µM | 0.0001 to 10 µM | 0.0001 to 10 µM | 0.0001 to 10 µM
OC(c1cc(Cl)cc2cn[nH]c12)C1(F)CCC(F)(F)CC1 (stereo not drawn) [Compound P-0033, (5-chloro-1H-indazol-7-yl)(1,4,4-trifluorocyclohexyl)methanol] | 0.0001 to 10 µM | 0.0001 to 10 µM | 0.0001 to 10 µM | 0.0001 to 10 µM
OC1(c2c(Cl)c(Cl)cc3cn[nH]c23)CC2(CCC2)C1 [Compound P-0036, 2-(5,6-dichloro-1H-indazol-7-yl)spiro[3.3]heptan-2-ol] | 0.0001 to 10 µM | > 10 µM | 0.0001 to 10 µM | 0.0001 to 10 µM
Cc1ccc2cn[nH]c2c1C(O)C12CC3CC(CC(C3)C1)C2 (stereo not drawn) [Compound P-0037, ((ls,3s)-adamantan-1-yl)(6-methyl-1H-indazol-7-yl)methanol] | 0.0001 to 10 µM | > 10 µM | 0.0001 to 10 µM | 0.0001 to 10 µM
CC1(C(O)c2cc(F)cc3cn[nH]c23)CCCCC1 (stereo not drawn) [Compound P-0041, (5-fluoro-1H-indazol-7-yl)(1-methylcyclohexyl)methanol] | 0.0001 to 10 µM | 0.0001 to 10 µM | 0.0001 to 10 µM | 0.0001 to 10 µM
OC(c1cc(F)cc2cn[nH]c12)C1CCCCC1 (stereo not drawn) [Compound P-0042, cyclohexyl(5-fluoro-1H-indazol-7-yl)methanol] | 0.0001 to 10 µM | 0.0001 to 10 µM | 0.0001 to 10 µM | 0.0001 to 10 µM
OC(c1cc(F)cc2cn[nH]c12)C12CC3CC(CC(C3)C1)C2 (stereo not drawn) [Compound P-0043, adamantan-1-yl(5-fluoro-1H-indazol-7-yl)methanol] | 0.0001 to 10 µM | > 10 µM | 0.0001 to 10 µM | 0.0001 to 10 µM
Cc1ccc2cn[nH]c2c1C(O)C1(C(F)(F)F)CCCC1 (stereo not drawn) [Compound P-0049, (6-methyl-1H-indazol-7-yl)(1-(trifluoromethyl)cyclopentyl)methanol] | 0.0001 to 10 µM | 0.0001 to 10 µM | 0.0001 to 10 µM | 0.0001 to 10 µM
CC1(C(O)c2cc3c(c4cn[nH]c24)CCCC3)CCCCC1 (stereo not drawn) [Compound P-0050, (1-methylcyclohexyl)(6,7,8,9-tetrahydro-3H-benzo[e]indazol-4-yl)methanol] | 0.0001 to 10 µM | > 10 µM | 0.0001 to 10 µM | 0.0001 to 10 µM
CC1(C(O)c2c(F)c(Cl)cc3cn[nH]c23)CCCCC1 (stereo not drawn) [Compound P-0052, (5-chloro-6-fluoro-1H-indazol-7-yl)(1-methylcyclohexyl)methanol] | 0.0001 to 10 µM | 0.0001 to 10 µM | 0.0001 to 10 µM | 0.0001 to 10 µM
OC(c1cc(Cl)cc2cn[nH]c12)C1(C(F)(F)F)CCCC1 (stereo not drawn) [Compound P-0053, (5-chloro-1H-indazol-7-yl)(1-(trifluoromethyl)cyclopentyl)methanol] | 0.0001 to 10 µM | 0.0001 to 10 µM | 0.0001 to 10 µM | 0.0001 to 10 µM
CC1(C(O)c2c3c(cc4cn[nH]c24)CC3)CCCCC1 (stereo not drawn) [Compound P-0054, (5,6-dihydro-1H-cyclobuta[f]indazol-7-yl)(1-methylcyclohexyl)methanol] | 0.0001 to 10 µM | > 10 µM | 0.0001 to 10 µM | 0.0001 to 10 µM
CC1(C(O)c2cc(Cl)c(F)c3cn[nH]c23)CCCCC1 (stereo not drawn) [Compound P-0055, (5-chloro-4-fluoro-1H-indazol-7-yl)(1-methylcyclohexyl)methanol] | 0.0001 to 10 µM | 0.0001 to 10 µM | 0.0001 to 10 µM | 0.0001 to 10 µM
OC(c1cccc2cncn12)C1CCCC1 (stereo not drawn) [Compound P-0058, cyclopentyl(imidazo[1,5-a]pyridin-5-yl)methanol] | 0.0001 to 10 µM | > 10 µM | 0.0001 to 10 µM | 0.0001 to 10 µM
OC(c1cccc2cncn12)C1CC2CCC1C2 (stereo not drawn) [Compound P-0059, bicyclo[2.2.1]heptan-2-yl(imidazo[1,5-a]pyridin-5-yl)methanol] | 0.0001 to 10 µM | > 10 µM | 0.0001 to 10 µM | 0.0001 to 10 µM

Other lines, results leading:

IC50 [1] | IC50 [2] | IC50 [3] | IC50 [4] | SMILES
> 10 µM | 0.0001 to 10 µM | 0.0001 to 10 µM | 10 to 100 µM | CS(=O)(=O)N1CC2(C1)CC(O)(c1cc(Cl)cc3cn[nH]c13)C2 [Compound P-0028, 6-(5-chloro-1H-indazol-7-yl)-2-(methylsulfonyl)-2-azaspiro[3.3]heptan-6-ol]
0.0001 to 10 µM | 0.0001 to 10 µM | 0.0001 to 10 µM | 0.0001 to 10 µM | OC1(c2cc(Cl)cc3cn[nH]c23)CC2(CCOCC2)C1 [Compound P-0029, 2-(5-chloro-1H-indazol-7-yl)-7-oxaspiro[3.5]nonan-2-ol]
> 10 µM | > 10 µM | 0.0001 to 10 µM | 0.0001 to 10 µM | Cc1cc(C2(O)CC3(CCC3)C2)c2[nH]ncc2c1 [Compound P-0030, 2-(5-methyl-1H-indazol-7-yl)spiro[3.3]heptan-2-ol]
> 10 µM | > 10 µM | 0.0001 to 10 µM | 0.0001 to 10 µM | OC1(c2cc(C(F)(F)F)cc3cn[nH]c23)CC2(CCC2)C1 [Compound P-0031, 2-(5-(trifluoromethyl)-1H-indazol-7-yl)spiro[3.3]heptan-2-ol]
0.0001 to 10 µM | 0.0001 to 10 µM | 0.0001 to 10 µM | 0.0001 to 10 µM | CS(=O)(=O)N1CCC2(CC1)CC(O)(c1cc(Cl)cc3cn[nH]c13)C2 [Compound P-0034, 2-(5-chloro-1H-indazol-7-yl)-7-(methylsulfonyl)-7-azaspiro[3.5]nonan-2-ol]
> 10 µM | 0.0001 to 10 µM | 0.0001 to 10 µM | 0.0001 to 10 µM | O=S(=O)(C1CC1)N1CCC2(CC1)CC(O)(c1cc(Cl)cc3cn[nH]c13)C2 [Compound P-0035, 2-(5-chloro-1H-indazol-7-yl)-7-(cyclopropylsulfonyl)-7-azaspiro[3.5]nonan-2-ol]
> 10 µM | 0.0001 to 10 µM | 0.0001 to 10 µM | 0.0001 to 10 µM | CS(=O)(=O)NC1CC(O)(c2cc(Cl)cc3cn[nH]c23)C1 (stereo not drawn) [Compound P-0038, N-(3-(5-chloro-1H-indazol-7-yl)-3-hydroxycyclobutyl)methanesulfonamide]
0.0001 to 10 µM | 0.0001 to 10 µM | 0.0001 to 10 µM | 0.0001 to 10 µM | OC1(c2cc(Cl)cc3cn[nH]c23)CC2(COC2)C1 [Compound P-0039, 6-(5-chloro-1H-indazol-7-yl)-2-oxaspiro[3.3]heptan-6-ol]
0.0001 to 10 µM | 0.0001 to 10 µM | 0.0001 to 10 µM | 0.0001 to 10 µM | OC1(c2cc(Cl)cc3cn[nH]c23)CC2(CSC2)C1 [Compound P-0040, 6-(5-chloro-1H-indazol-7-yl)-2-thiaspiro[3.3]heptan-6-ol]
> 10 µM | > 10 µM | 10 to 100 µM | 100 to 200 µM | O=S(=O)(NC1CC(O)(c2cc(Cl)cc3cn[nH]c23)C1)c1ccccc1 (stereo not drawn) [Compound P-0044, N-(3-(5-chloro-1H-indazol-7-yl)-3-hydroxycyclobutyl)benzenesulfonamide]
> 10 µM | 0.0001 to 10 µM | 0.0001 to 10 µM | 10 to 100 µM | O=S(=O)(NC1CC(O)(c2cc(Cl)cc3cn[nH]c23)C1)C1CC1 (stereo not drawn) [Compound P-0045, N-(3-(5-chloro-1H-indazol-7-yl)-3-hydroxycyclobutyl)cyclopropanesulfonamide]
> 10 µM | > 10 µM | 0.0001 to 10 µM | 0.0001 to 10 µM | CC1(C)CC(O)(c2cc(Cl)cc3cn[nH]c23)CCN1S(C)(=O)=O (stereo not drawn) [Compound P-0046, 4-(5-chloro-1H-indazol-7-yl)-2,2-dimethyl-1-(methylsulfonyl)piperidin-4-ol]
> 10 µM | 0.0001 to 10 µM | 0.0001 to 10 µM | 0.0001 to 10 µM | O=S1(=O)CCC(O)(c2cc(Cl)cc3cn[nH]c23)CC1 [Compound P-0047, 4-(5-chloro-1H-indazol-7-yl)-4-hydroxytetrahydro-2H-thiopyran 1,1-dioxide]
0.0001 to 10 µM | 0.0001 to 10 µM | 0.0001 to 10 µM | 0.0001 to 10 µM | OC1(c2cc(Cl)cc3cn[nH]c23)CC2(CCCC2)C1 [Compound P-0048, 2-(5-chloro-1H-indazol-7-yl)spiro[3.4]octan-2-ol]
0.0001 to 10 µM | 0.0001 to 10 µM | 0.0001 to 10 µM | 0.0001 to 10 µM | OC1(c2cc(Cl)cc3cn[nH]c23)CC2(CCCCC2)C1 [Compound P-0051, 2-(5-chloro-1H-indazol-7-yl)spiro[3.5]nonan-2-ol]
